According to article PMC8287724, “Reducing Auditory Nerve Excitability by Acute Antagonism of Ca^2+-Permeable AMPA Receptors” (Frontiers in Synaptic Neuroscience, 2021):

Tests used:
M2 acetylcholine GPCR = target: T1, M2 acetylcholine GPCR (Homo sapiens, UniProt P08172); assay: Radioligand binding assay, M2 receptor (transfected CHO cells); settings: antagonist 1 μM
T1 construct: host or cells: CHO cells
Protocol: (§1) Binding assays were conducted to evaluate the affinity of test compounds IEM-1460 and IEM-1925 (Eurofins Scientific, Inc.) for 15 targets: the human alpha-1 adrenergic (A1) receptor, histaminergic (H)-2 and−3 receptors, and muscarinic acetylcholine receptors-1 to−5 in transfected CHO cells by radioligand binding. The neuronal α4β2 and neuronal α7 cholinergic acetylcholine receptors were tested in transfected SH-SY5Y cells. The histaminergic-1 and−4 receptors were tested in transfected HEK-293 cells. Ion channel testing for AMPA and N-methyl-D-aspartate (NMDA) was performed in cells from the rat cerebral cortex. […] Non-specific binding was determined in the presence of 1 μM of DCPX. […] The filters were dried and then counted for radioactivity in a scintillation counter (Topcount, Packard) using a scintillation cocktail (Microscint 0, Packard). The results are expressed as a percent inhibition of the control radioligand specific binding: 100-[(measured specific binding)/(control specific binding) × 100]. […]
(§2) We tested the metabolic stability of the compounds with in vitro liver microsome stability assays (Table 1, right). […] We evaluated the compounds for potential toxicity with assays that test for inhibition of off-target ion channels and receptors. […]

M5 acetylcholine GPCR = target: T2, M5 acetylcholine GPCR (Homo sapiens, UniProt P08912); assay: Radioligand binding assay, M5 receptor (transfected CHO cells); settings: antagonist 1 μM
T2 construct: host or cells: CHO cells
T2 sequence (P08912 whole entry): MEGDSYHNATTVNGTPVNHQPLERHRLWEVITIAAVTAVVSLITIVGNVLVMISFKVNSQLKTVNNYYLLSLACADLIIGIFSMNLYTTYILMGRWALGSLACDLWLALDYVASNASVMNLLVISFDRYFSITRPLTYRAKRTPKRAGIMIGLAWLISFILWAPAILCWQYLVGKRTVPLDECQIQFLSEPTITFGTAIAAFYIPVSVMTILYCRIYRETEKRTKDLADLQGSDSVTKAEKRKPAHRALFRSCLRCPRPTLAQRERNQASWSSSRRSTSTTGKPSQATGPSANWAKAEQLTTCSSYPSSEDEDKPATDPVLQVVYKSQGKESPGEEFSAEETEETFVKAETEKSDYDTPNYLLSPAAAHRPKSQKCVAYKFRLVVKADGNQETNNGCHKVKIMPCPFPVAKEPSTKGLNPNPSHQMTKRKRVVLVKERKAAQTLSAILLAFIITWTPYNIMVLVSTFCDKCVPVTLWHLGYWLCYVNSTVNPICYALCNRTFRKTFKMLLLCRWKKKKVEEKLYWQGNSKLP
Protocol: as §1, §2

[1] = Metabolic stability in vitro as summarised in the abstract (species not given); type: in vitro ADME; settings: mouse, guinea pig, human, liver microsomes, pH 7.4
Protocol: (§3) The stability of IEM-1460 in the presence of guinea pig liver microsomes (BioIVT, PN: X008070) or IEM-1925 in the presence of human (BioIVT, PN: M00101), mouse, or guinea pig liver microsomes was evaluated (Paraza Pharma, Inc., Montreal, Quebec, Canada). Both IEM-1925 and IEM-1460 were incubated with microsomes at 37°C for a total of 45 min. Working solutions were prepared in 100 mM potassium phosphate buffer and the final reaction was performed at pH 7.4 in 100 mM potassium phosphate buffer containing 0.5 mg/mL liver microsomal protein. Phase I metabolism was assessed by adding NADPH to a final concentration of 1 mM and collecting samples at time points 0, 5, 15, 30, and 45 min. All collected samples were quenched 1:1 with ice-cold stop solution (1 μM labetalol and 1 μM glyburide in acetonitrile) and centrifuged to remove precipitated protein. […] Samples were analyzed by LC-MS/MS using a Thermo Vanquish UPLC and a Thermo Quantis triple quadrupole mass spectrometer. […] Reference compounds were also assessed to ensure accuracy and precision of experimental protocol: imipramine and verapamil for human liver microsomes, diphenhydramine and verapamil for mouse liver microsomes, and warfarin and verapamil for guinea pig liver microsomes. […] Half-life was determined from a plot of the natural logarithm of the peak area ratio (remaining compound peak area/internal standard peak area) against time.

nAChR alpha7 = target: T3, nAChR alpha7 (Homo sapiens, UniProt P36544); assay: Radioligand binding assay, neuronal α7 nicotinic receptor (transfected SH-SY5Y cells); settings: antagonist 1 μM
T3 construct: host or cells: SH-SY5Y cells
T3 sequence (P36544 23-502): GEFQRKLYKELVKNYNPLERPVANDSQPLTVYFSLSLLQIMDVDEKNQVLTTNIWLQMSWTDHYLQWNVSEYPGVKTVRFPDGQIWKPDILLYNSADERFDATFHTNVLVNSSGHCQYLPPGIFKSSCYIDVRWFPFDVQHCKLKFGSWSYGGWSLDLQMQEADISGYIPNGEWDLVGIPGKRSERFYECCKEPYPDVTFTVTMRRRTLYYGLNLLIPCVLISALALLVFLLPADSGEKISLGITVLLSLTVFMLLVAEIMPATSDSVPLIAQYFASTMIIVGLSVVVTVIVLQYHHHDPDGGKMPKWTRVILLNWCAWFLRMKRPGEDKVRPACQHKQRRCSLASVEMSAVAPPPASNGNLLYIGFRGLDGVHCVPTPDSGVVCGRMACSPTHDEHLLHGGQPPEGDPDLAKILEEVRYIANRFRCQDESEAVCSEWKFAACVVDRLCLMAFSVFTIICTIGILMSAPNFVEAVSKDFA
Protocol: as §1, §2

[2] = system: AMPA glutamate (GluA2-containing); assay: Radioligand binding assay, AMPA receptor (rat cerebral cortex); settings: antagonist 1 μM
Protocol: as §1, §2

M4 acetylcholine GPCR = target: T4, M4 acetylcholine GPCR (Homo sapiens, UniProt P08173); assay: Radioligand binding assay, M4 receptor (transfected CHO cells); settings: antagonist 1 μM
T4 construct: host or cells: CHO cells
T4 sequence (P08173 whole entry): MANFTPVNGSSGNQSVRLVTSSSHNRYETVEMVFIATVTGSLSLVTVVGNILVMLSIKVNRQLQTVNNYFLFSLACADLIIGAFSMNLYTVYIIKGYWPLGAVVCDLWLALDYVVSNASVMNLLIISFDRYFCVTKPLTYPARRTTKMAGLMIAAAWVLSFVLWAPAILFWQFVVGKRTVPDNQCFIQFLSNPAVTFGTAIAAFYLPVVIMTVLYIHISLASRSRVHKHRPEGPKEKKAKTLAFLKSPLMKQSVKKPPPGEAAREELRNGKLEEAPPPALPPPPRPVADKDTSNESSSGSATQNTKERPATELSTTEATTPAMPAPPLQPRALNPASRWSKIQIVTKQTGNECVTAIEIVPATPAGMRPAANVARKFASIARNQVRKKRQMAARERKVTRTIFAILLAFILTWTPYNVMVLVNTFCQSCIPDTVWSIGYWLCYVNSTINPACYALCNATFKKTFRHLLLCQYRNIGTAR
Protocol: as §1, §2

H4 histamine GPCR = target: T5, H4 histamine GPCR (Homo sapiens, UniProt Q9H3N8); assay: Radioligand binding assay, H4 receptor (transfected HEK-293 cells); settings: antagonist 1 μM
T5 construct: host or cells: HEK-293 cells
T5 sequence (Q9H3N8 whole entry): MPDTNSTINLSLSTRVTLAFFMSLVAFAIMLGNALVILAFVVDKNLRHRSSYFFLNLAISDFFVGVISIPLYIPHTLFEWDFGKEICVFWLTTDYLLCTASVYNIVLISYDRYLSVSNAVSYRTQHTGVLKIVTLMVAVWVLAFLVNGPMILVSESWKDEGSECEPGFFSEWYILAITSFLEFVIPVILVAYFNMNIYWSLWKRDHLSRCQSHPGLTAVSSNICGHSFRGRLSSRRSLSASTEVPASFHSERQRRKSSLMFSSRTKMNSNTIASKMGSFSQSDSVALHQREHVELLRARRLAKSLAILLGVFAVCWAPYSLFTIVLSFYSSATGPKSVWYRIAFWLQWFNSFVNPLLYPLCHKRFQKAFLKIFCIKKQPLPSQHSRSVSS
Protocol: as §1, §2

[3] = target: T6, hERG potassium channel (Kv 11.1) (Homo sapiens, UniProt Q12809); assay: Radioligand binding assay, hERG potassium channel; settings: antagonist 1 μM, read-out: Mean% inhibition (N = 2) of radioligand binding
T6 construct: Eurofins Scientific, Inc
T6 sequence (Q12809 whole entry): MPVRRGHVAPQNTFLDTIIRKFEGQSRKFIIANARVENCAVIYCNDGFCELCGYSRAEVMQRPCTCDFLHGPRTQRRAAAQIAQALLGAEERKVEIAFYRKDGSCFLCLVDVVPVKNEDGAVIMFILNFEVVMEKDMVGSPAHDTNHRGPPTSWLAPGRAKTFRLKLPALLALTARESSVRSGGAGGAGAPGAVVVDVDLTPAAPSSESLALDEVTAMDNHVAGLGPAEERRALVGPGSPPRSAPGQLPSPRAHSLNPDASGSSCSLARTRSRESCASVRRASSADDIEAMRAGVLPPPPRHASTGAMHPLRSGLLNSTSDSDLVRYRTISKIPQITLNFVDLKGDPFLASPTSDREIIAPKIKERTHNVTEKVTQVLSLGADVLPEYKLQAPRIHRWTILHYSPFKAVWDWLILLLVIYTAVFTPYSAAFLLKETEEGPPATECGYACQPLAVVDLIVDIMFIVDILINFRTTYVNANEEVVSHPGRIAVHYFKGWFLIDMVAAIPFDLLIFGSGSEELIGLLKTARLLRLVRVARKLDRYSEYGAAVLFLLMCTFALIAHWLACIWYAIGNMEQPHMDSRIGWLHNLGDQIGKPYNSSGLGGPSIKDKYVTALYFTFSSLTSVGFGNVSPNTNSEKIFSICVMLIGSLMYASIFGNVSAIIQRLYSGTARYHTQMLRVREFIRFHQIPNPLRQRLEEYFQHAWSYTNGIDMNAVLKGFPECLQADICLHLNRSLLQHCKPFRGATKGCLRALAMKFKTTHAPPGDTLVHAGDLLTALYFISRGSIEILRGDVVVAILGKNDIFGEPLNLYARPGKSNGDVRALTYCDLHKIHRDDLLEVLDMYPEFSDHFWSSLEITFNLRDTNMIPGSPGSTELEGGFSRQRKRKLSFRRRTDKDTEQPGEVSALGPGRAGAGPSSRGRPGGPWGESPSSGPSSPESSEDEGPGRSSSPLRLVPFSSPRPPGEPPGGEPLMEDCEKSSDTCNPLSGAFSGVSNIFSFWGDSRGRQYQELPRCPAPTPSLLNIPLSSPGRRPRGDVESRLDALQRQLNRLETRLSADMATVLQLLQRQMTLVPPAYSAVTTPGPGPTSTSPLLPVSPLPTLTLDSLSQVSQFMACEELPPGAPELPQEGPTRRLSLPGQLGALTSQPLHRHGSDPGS
Protocol: as §1, §2

[4] = In vitro microsomal stability assay, guinea pig; type: in vitro ADME; settings: pH 7.4; guinea pig liver microsomes, 1 μM compound, 37°C; read-out: Half-life (min) Mean (N = 2)
Protocol: as §3, with “time. […]” for “time.”

H2 histamine GPCR = target: T7, H2 histamine GPCR (Homo sapiens, UniProt P25021); assay: Radioligand binding assay, H2 receptor (transfected CHO cells); settings: antagonist 1 μM
T7 construct: host or cells: CHO cells
T7 sequence (P25021 whole entry): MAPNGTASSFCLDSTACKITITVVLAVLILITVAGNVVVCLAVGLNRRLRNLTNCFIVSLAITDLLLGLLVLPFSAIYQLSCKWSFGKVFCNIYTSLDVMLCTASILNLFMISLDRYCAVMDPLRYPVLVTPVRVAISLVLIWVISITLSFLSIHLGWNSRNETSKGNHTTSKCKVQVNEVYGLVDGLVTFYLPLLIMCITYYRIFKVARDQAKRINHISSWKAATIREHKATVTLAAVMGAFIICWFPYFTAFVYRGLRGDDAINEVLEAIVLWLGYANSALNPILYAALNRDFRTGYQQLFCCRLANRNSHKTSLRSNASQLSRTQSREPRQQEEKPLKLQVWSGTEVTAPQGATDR
Protocol: as §1, §2

H3 histamine GPCR = target: T8, H3 histamine GPCR (Homo sapiens, UniProt Q9Y5N1); assay: Radioligand binding assay, H3 receptor (transfected CHO cells); settings: antagonist 1 μM
T8 construct: host or cells: CHO cells
T8 sequence (Q9Y5N1 whole entry): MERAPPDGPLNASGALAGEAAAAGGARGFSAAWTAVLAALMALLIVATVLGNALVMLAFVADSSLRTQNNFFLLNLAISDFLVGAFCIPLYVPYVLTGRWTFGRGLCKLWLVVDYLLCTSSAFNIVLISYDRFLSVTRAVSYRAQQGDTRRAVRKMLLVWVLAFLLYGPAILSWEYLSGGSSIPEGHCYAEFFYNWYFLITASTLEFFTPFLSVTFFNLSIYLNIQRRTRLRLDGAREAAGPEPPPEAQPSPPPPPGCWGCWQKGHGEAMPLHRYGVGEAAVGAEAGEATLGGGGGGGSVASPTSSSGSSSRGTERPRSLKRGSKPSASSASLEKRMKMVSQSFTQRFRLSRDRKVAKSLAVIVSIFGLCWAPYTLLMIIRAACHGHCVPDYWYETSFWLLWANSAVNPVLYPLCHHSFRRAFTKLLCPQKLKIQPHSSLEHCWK
Protocol: as §1, §2

M3 acetylcholine GPCR = target: T9, M3 acetylcholine GPCR (Homo sapiens, UniProt P20309); assay: Radioligand binding assay, M3 receptor (transfected CHO cells); settings: antagonist 1 μM
T9 construct: host or cells: CHO cells
T9 sequence (P20309 whole entry): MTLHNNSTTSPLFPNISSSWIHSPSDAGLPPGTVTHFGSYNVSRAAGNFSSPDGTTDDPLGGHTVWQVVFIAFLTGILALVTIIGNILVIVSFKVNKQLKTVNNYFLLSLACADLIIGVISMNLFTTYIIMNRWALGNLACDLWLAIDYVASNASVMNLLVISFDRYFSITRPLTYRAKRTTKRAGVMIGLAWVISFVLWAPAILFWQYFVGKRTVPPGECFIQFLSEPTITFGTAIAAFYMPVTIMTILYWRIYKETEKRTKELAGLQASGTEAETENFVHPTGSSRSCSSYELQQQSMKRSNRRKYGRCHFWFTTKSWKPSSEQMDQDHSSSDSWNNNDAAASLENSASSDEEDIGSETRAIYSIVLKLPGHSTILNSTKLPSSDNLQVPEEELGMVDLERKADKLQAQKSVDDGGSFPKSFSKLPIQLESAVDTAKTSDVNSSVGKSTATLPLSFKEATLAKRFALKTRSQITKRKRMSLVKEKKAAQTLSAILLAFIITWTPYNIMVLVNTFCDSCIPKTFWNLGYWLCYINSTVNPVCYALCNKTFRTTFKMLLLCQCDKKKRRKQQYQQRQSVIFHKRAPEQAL
Protocol: as §1, §2

NMDA glutamate = assay: Radioligand binding assay, NMDA receptor (rat cerebral cortex); settings: antagonist 1 μM
Protocol: as §1, §2

T1 sequence (P08172 whole entry): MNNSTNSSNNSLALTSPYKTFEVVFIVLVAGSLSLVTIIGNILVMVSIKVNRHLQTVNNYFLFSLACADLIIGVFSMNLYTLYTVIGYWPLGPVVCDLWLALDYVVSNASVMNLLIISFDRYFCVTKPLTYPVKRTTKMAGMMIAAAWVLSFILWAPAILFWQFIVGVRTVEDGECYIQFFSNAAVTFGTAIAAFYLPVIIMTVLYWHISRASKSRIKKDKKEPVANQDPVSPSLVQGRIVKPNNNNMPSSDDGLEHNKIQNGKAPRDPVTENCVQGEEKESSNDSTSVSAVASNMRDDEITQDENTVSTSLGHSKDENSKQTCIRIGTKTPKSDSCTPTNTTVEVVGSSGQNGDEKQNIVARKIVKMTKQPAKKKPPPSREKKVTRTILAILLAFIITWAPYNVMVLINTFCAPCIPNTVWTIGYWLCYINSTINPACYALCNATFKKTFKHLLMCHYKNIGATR

SMILES	Mean% inhibition (N = 2) of radioligand binding (M2 acetylcholine GPCR)	Mean% inhibition (N = 2) of radioligand binding (M5 acetylcholine GPCR)	half-life [1]	Mean% inhibition (N = 2) of radioligand binding (nAChR alpha7)	Mean% inhibition (N = 2) of radioligand binding [2]	Mean% inhibition (N = 2) of radioligand binding (M4 acetylcholine GPCR)	Mean% inhibition (N = 2) of radioligand binding (H4 histamine GPCR)	inhibition at 1 μM [3]	half-life at 1 μM [4]	Mean% inhibition (N = 2) of radioligand binding (H2 histamine GPCR)	Mean% inhibition (N = 2) of radioligand binding (H3 histamine GPCR)	Mean% inhibition (N = 2) of radioligand binding (M3 acetylcholine GPCR)	Mean% inhibition (N = 2) of radioligand binding (NMDA glutamate)
C[N+](C)(C)CCCCCNCC12CC3CC(CC(C3)C1)C2 [IEM-1460]	<1%	5.2%	> 5 h	<1%	<1%	37%	<1%	< 5%	> 300 min	<1%	<1%	15%	<1%
NCCCCCNC1(c2ccccc2)CCCCC1 [IEM-1925]	<1%	<5%	> 5 h	<2%	9.5%	19%	<5%	< 1%	> 300 min	<1%	<5%	<5%	<1%
